The subject of the assay is VE-cadherin (Cdh5) mRNA. In words: In vivo endothelial Cdh5 gene silencing after intravenous siCdh5 LNP, tissue mRNA by RT-qPCR. Further details: species or system mice. The settings on record: for RNA delivery to endothelial cells vs DOTAP and EDMPC: formulation screening, summary statement. The text has this: Cadherin (Cdh5), also known as vascular endothelial cadherin (VE-cadherin) is a useful target gene to evaluate endothelial cell siRNA delivery in that Cdh5 expression is strictly limited to endothelial cells. By quantifying Cdh5 mRNA remaining in the tissues after siCdh5 administration, RNA delivery efficiency to endothelial cells can be evaluated.
Animal Experiments: All animal studies were approved by the MIT Institutional Animal Care and Use Committee (CAC) and were consistent with local, state, and federal regulations as applicable. All experimental procedures were performed with ethical compliance and approval under the guidelines for Division of Comparative Medicine by Massachusetts Institute of Technology. Female C57BL/6 mice (6 weeks) were obtained from Jackson Laboratory, housed in an MIT animal facility, and acclimated for at least 3 days before the initiation of a study.
For intravenous administration, siRNA-lipid nanoparticles diluted in PBS were injected […] using 29 g, 3/10 cc insulin syringes (BD Biosciences) after gentle warming of the animals using a heat lamp. For intramuscular administration, siRNA-lipid nanoparticles diluted in PBS were injected […] using 29 g, 3/10 cc insulin syringes (BD Biosciences).
48-72 hours after injection, organs or tissues including the heart, liver, spleen, lung, kidneys, muscle (quadriceps), and brain were collected and soaked in RNAlater solution (Thermo Fisher) for 12-48 hours at 4° C. and stored at −20° C. after the removal of RNAlater.
Tissue mRNA Quantification by RT-qPCR: Total RNA was isolated from tissues using the TRIzol (Thermo Fisher) and Direct-zol-96 MagBead (Zymo Research), or Quick-RNA MagBead (Zymo Research). Briefly, tissue punches were placed in a deep-well 96 well plate with 4-mm stainless beads and lysed with 350 μL TRIzol, or 250 μL DNA/RNA Shield (Zymo Reaearch) using a GenoGrinder2010. Total RNA was further purified using Direct-zol-96 MagBead (Zymo Research) or Quick-RNA MagBead (Zymo Research) according to the manufacturer's protocol.
cDNA was synthesized using ABI High Capacity cDNA Reverse Transcription Kit (Applied Biosystems #4368814) according to manufacturer instructions. Briefly, 5 μl of a master mix containing 1 μl 10X Buffer, 0.4 μl 25X dNTPs, 1 μl 10X Random primers, 0.5 μl Reverse Transcriptase, and 2.1 μl of water per reaction was added to 5 μl total RNA solution that was isolated using the above protocol. Plates were sealed, mixed, and incubated on a thermal cycler for 10 minutes at 25° C., followed by 2 hours at 37° C. and 5 minutes at 85° C.
Gene expression was analyzed in qPCR with Luna® Universal Probe RT-qPCR Kit (NEB) and Taqman probes-Cdh5 (Mm00486938_m1), and Gusb (Mm01197698_m1) or B2m (Mm00437762_m1). Samples were amplified using a LightCycler 480 qPCR machine (Roche). Cdh5 expression was normalized to B2m or Gusb.

The mark [1] stands for this setting: Example 3: 20% cationic lipid LNPs, siCdh5 0.5 mg/kg i.v.

With `CCCCCCCCCCCCCC(=O)OCCN(CCOC(=O)CCCCCCCCCCCCC)C(=O)C[N+](C)(C)C` [DC-6-14, O,O′-ditetradecanoyl-N-(a-trimethylammonioacetyl) diethanolamine], the “RNA delivery to endothelial cells vs DOTAP and EDMPC” value (shortened to “RNA delivery … vs DOTAP and EDMPC”) was “much more efficiently”. Further, the “delivery to endothelial cells among screened cationic lipids” value under setting [1] is given as “most efficacious delivery to endothelial cells”.

With `CCCCCCCCCCCCCCCC(=O)OCC(C[N+](C)(C)C)OC(=O)CCCCCCCCCCCCCCC` (centres unmarked) [DPTAP, 1,2-dipalmitoyl-3-trimethylammonium-propane], the “RNA delivery … vs DOTAP and EDMPC” value was “much more efficiently”. Under setting [1], the “delivery to endothelial cells among screened cationic lipids” value is reported as “most efficacious delivery to endothelial cells” and the “endothelial delivery, DPTAP (16:0 TAP) vs DSTAP (18:0 TAP)” value is recorded as “significantly more efficient endothelial delivery”.

Take `CCCCCCCCCCCCCC(=O)OC[C@H](COP(=O)(OCC)OCC[N+](C)(C)C)OC(=O)CCCCCCCCCCCCC` (some centres unmarked) [EDMPC, 1,2-dimyristoyl-sn-glycero-3-ethylphosphocholine]: the “endothelial delivery, EDMPC (14:0 EPC) vs EDLPC (12:0 EPC)” value under setting [1] is recorded as “more efficient endothelial delivery”.

As to `CCCCCCCCCCCCCCCC(=O)OC[C@H](COP(=O)(OCC)OCC[N+](C)(C)C)OC(=O)CCCCCCCCCCCCCCC` (some centres unmarked) [EDPPC, 1,2-dipalmitoyl-sn-glycero-3-ethylphosphocholine], the “RNA delivery … vs DOTAP and EDMPC” value was “much more efficiently”. Besides, the “delivery to endothelial cells among screened cationic lipids” value under setting [1] is given as “most efficacious delivery to endothelial cells”.

These data come from patent US20250049713A1, “LIPID NANOPARTICLES FOR DELIVERY OF AGENTS” (Massachusetts Institute of Technology, priority 2023, published 2025).
